Measured values reported in ChEMBL document CHEMBL1955866, “New cyclic peptides with osteoblastic proliferative activity from Dianthus superbus” (Bioorg Med Chem Lett, 2012).
Where a SMILES comes first, the peptide text is derived from it.

Tests used:
Assay type in all cases: functional, cell-based
[1] = Osteoblastic proliferative activity in […] MC3T3-E1 cells at 10^-2 mM by MTT assay
[2] = Osteoblastic proliferative activity in […] MC3T3-E1 cells at 10^-3 mM by MTT assay
[3] = Osteoblastic proliferative activity in […] MC3T3-E1 cells at 10^-5 mM by MTT assay
[4] = Osteoblastic proliferative activity in […] MC3T3-E1 cells at 10^-6 mM by MTT assay
[5] = Osteoblastic proliferative activity in rat MC3T3-E1 cells at 10^-4 mM by MTT assay

| SMILES | Activity [1] [%] | Activity [2] [%] | Activity [3] [%] | Activity [4] [%] | Activity [5] [%] |
| --- | --- | --- | --- | --- | --- |
| [F-].[Na+] | 46.2 |  |  |  |  |
| CC(C)C[C@@H]1NC(=O)[C@H]([C@@H](C)O)NC(=O)[C@H](CC(C)C)NC(=O)[C@@H]2CCCN2C(=O)CNC(=O)[C@H](Cc2ccccc2)NC1=O (cyclo(FGPLTL)) | 13.7 | 3.9 | 38.2 | 25.4 | 21.7 |
| CC[C@H](C)[C@@H]1NC(=O)[C@H]([C@@H](C)O)NC(=O)[C@H](C(C)C)NC(=O)[C@@H]2CCCN2C(=O)CNC(=O)[C@H](Cc2ccccc2)NC1=O (cyclo(FGPVTI)) | 22.5 | 17 | 33.9 | 17.2 | 26.3 |
